# Test: Human HepG2 cell viability assay in 384 well format
# Type: toxicity, cell-based
# Parameters: dose 125 nL, time 70.5 hour; concentration not given beside the values
# Conditions: HepG2 cells, read-out: Inhibition
row,Compound,cytotoxicity at 70.5 h [%]
1,O=C(CC1CCCC1)NCCS(=O)(=O)N1CCN(c2ccccc2)CC1,-3.36
2,O=C(c1ccc(N2CCCC2)nn1)N1CCc2ccccc21,0.119
3,O=C(Nc1ccc2c(c1)OCO2)c1ccc(N2CCCC2)nn1,20.4
4,Nc1nc2c(c(NC(=O)Nc3ccccc3)n1)CCCC2,16.9
5,Nc1nc2c(c(NC(=O)Nc3ccc(Cl)c(Cl)c3)n1)CCCC2,9.83
6,CCOC(=O)c1cc2n(n1)CCCO2,22.1
7,Cc1cccc(N2CCN(S(=O)(=O)CCN)CC2)c1,21.4
8,CCc1c(C)nc(-n2nc(-c3cccs3)cc2N)[nH]c1=O,-5.27
9,Cc1cc(=O)[nH]c(-n2nc(C3CC3)cc2N)n1,29.2
10,CC(C)c1cc(=O)[nH]c(-n2nc(C3CC3)cc2N)n1,58.1
11,c1cncc(CNCCc2cccs2)c1,-9.29
12,O=c1n(Cc2cccc(F)c2)nc2ncccn12,15.8
13,O=c1n(Cc2ccc(F)cc2)nc2ncccn12,24.8
14,O=c1n(Cc2ccccc2F)nc2ncccn12,21
15,CN1C(=O)CCc2cc(NC(=O)C3CC3)ccc21,10.6
16,CN1C(=O)C(C)(C)COc2cc(NS(=O)(=O)c3ccccc3F)ccc21,16.6
17,CC(C)CS(=O)(=O)Nc1ccc2c(c1)OCC(C)(C)C(=O)N2C,50.7
18,CCc1cc(=O)[nH]c2nnc(SCC(=O)NC)n12,14.5
19,CCc1cc(=O)[nH]c2nnc(SCC(=O)NC(C)C)n12,17.6
20,NC(=O)CSc1nnc2[nH]c(=O)c3c(n12)CCCC3,-12.6
21,CCn1cc(CN2CCCn3nc(CNC(=O)N(C)C)cc3C2)cn1,-7.73
22,COc1cc2c(cc1CNC(=O)C(C)n1ccnc1C(C)C)OCCO2 (configuration not stated),-3.89
23,C[C@@H]1CN(Cc2ccncc2)C[C@@]1(O)C1CC1,-11.5
24,CCN(Cc1c(C)nn(C)c1C)C(=O)C1COc2ccccc2C1 (configuration not stated),-4.62

row,Compound,cytotoxicity at 70.5 h [%]
1,Cc1cc(CC2COc3ccccc3C2)cnc1N (configuration not stated),-13.2
2,CCC1c2cccn2CCN1C(=O)c1ccno1 (configuration not stated),-9.21
3,OCc1ccc(CN2CCC(n3cc(-c4ccsc4)nn3)CC2)o1,-5.24
4,CC(Cn1cccn1)NCc1csc2c1CCCC2 (configuration not stated),0.457
5,CCCN1CCN(C(=O)Cc2cccnc2)[C@H]2CS(=O)(=O)C[C@H]21,11.9
6,CCCc1nc(C)cc(N2CCNC(C(=O)NCc3cccnc3)C2)n1 (configuration not stated),31
7,CCc1cnc(C)nc1NCCc1nc(N)cc(O)n1,-3.5
8,CNc1cc(C)nc(N2CCC3(CC2)[C@H](O)C[C@@H]3OCCO)n1,-4.12
9,Cc1cnn(C(C)C2CC2)c1NC(=O)c1ccco1 (configuration not stated),-3.4
10,Cc1nccnc1N1Cc2cnc(CC(C)C)nc2C1,-6.3
11,CCCc1cncnc1N1CCC(NCCc2nc(O)cc(O)n2)CC1,-7.02
12,COc1cnc(N2CC(N3CCOCC3)C2)nc1-c1ccnn1C,6.03
13,CSCc1noc(CNC(=O)C2CCN(C(=O)C3CCCC3)CC2)n1,-10.6
14,CC(C)N1CCCC(CN(C)c2ccc(Cn3ccnc3)cn2)C1 (configuration not stated),-12.6
15,CCOc1ccc(C(=O)CCC(=O)NCc2cncn2CC)cc1C,40.5
16,CCc1n[nH]c(C(=O)N2CCCC3(CN(C)C(=O)O3)C2)c1C (configuration not stated),-13.7
17,Cc1ccc(F)cc1-n1c(CCCN2CCOCC2)n[nH]c1=O,-7.44
18,O=C(CCC(F)(F)F)N1CCN(Cc2ccncc2)[C@@H]2CS(=O)(=O)C[C@@H]21,24
19,O=C(NCCc1cnccn1)c1ccc(S(=O)(=O)NC2CCC2)cc1,18.7
20,COc1cccc(C(=O)N2CCC3(CCC(=O)N(C(C)C)C3)CC2)c1C,-4.66
21,CSCCCN1C[C@H]2CC[C@@H]1CN(Cc1[nH]cnc1C)C2,-2.71
22,COc1cccc2c(=O)n(CCN3CCNCC3)cnc12,-0.783
23,CCN1CCN(S(=O)(=O)N2CCCCCC2)[C@H]2CS(=O)(=O)C[C@H]21,30
24,CN1CC2(CCN(C(=O)CCCOCc3ccccc3)C2)OC1=O (configuration not stated),-11.2

row,Compound,cytotoxicity at 70.5 h [%]
1,COc1cc(C)ccc1OCc1nc(C(=O)N2CCC(C)CC2)co1,-2.55
2,CCOc1ccc(-c2cc(CCN)ccc2OC)cc1,-1.62
3,O=C(CCc1cc(O)no1)N1CCCC(OCc2cccnc2)C1 (configuration not stated),-10.1
4,OC1CCN(C2CCN(Cc3cccc(Cn4cccn4)c3)CC2)CC1,5.45
5,O=C(C1CC1)N1CCc2c(ncnc2N2CCN3CCCC3C2)C1 (configuration not stated),26
6,CCc1ncc(C(=O)N2CCCN(C3CCCC3)CC2)cn1,-14.6
7,CN(C)CCNC(=O)c1cc2n(n1)CCN(C(=O)CC(C)(C)C)C2,-9.74
8,c1ccc(C2CCCN(Cc3cc4n(n3)CCNC4)CC2)cc1 (configuration not stated),-6.51
9,CO[C@H]1CN(C(C)C)C[C@@H]1NC(=O)c1cc(COc2ccccc2)[nH]n1,-3.71
10,O=C(c1cnc2ccccc2c1)N1CCCC(O)(CN2CCCC2)C1 (configuration not stated),-0.693
11,Cc1cc2c(cc1C(=O)N1CCC3(CC(=O)NC3=O)C1)OCCO2 (configuration not stated),10.6
12,CC(=O)N1CCN(C(=O)Nc2cnc3c(cnn3C(C)C)c2)CC1,14.8
13,COc1ccccc1C(O)CNC(=O)NCc1csc(C)n1 (configuration not stated),1.19
14,COc1ccc(C(CNC(=O)NCc2csc(C)n2)N(C)C)cc1 (configuration not stated),21
15,CCS(=O)(=O)c1ccccc1N1CCC(NC(=O)C2CC2)CC1,1.87
16,Cc1ccc(-c2cc(CNC(=O)N3CCCN(C)CC3)on2)cc1,2.1
17,CCc1nc(C2CCCN(C(=O)c3ccccc3O)C2)no1 (configuration not stated),3.74
18,CC(C)n1ncc2cc(NC(=O)N3CCC(C(N)=O)C3)cnc21 (configuration not stated),16.7
19,Cc1nnc(CN(C)C2CCN(CCc3ccccn3)CC2)o1,-4.31
20,CCN1CCN(C(=O)c2ccc(=O)n(C)c2)c2ccccc21,-3.86
21,O=C(NCC(=O)N1CCCC1)c1nn(-c2ccccc2F)cc1O,3.63
22,O=C(c1nn(-c2ccccc2F)cc1O)N1CCCCC1,-7.27
23,COc1ccccc1C(=O)NS(=O)(=O)c1cccc(C#N)c1,-7.53
24,CC(C)Oc1ncccc1CNC(=O)NC1CCOc2ccccc21 (configuration not stated),8.32

row,Compound,cytotoxicity at 70.5 h [%]
1,COc1cc(C(=O)NS(=O)(=O)c2ccc(C#N)cc2)ccc1C,-5.03
2,COc1cc(C(=O)NS(=O)(=O)c2cccc(C#N)c2)cc(OC)c1C,-9.63
3,COc1ccc(C(=O)NS(=O)(=O)c2cccc(C#N)c2)cc1,13.5
4,Cc1cnn(CC2CN(Cc3nnc(C4CC4)n3C)CCO2)c1 (configuration not stated),-4.23
5,NC(=O)NCC1CCCCN1Cc1nc(-c2ccco2)no1 (configuration not stated),-9.61
6,O=C1NCCN1C1CCCN(Cc2coc(-c3cccs3)n2)C1 (configuration not stated),-6.11
7,O=C(N1CCCC(n2cncn2)C1)C1(c2cccc(F)c2)CCC1 (configuration not stated),-8.35
8,Cc1ccc(-n2nnc(C(=O)NCC(F)(F)F)c2C2CC2)cc1,-5.02
9,CC(=O)N(Cc1noc(C2CC2)n1)C1CCN(Cc2ccccn2)C1 (configuration not stated),-9.44
10,Cc1ccc(-n2nnc(C(=O)NCC3(CO)CC3)c2C2CC2)cc1,-4.67
11,O=C(c1cc2c(s1)CCC2)N1CCCC1Cn1cccn1 (configuration not stated),-1.69
12,O=C(N1CCCC(n2cncn2)C1)C1(c2cccc(F)c2)CCCC1 (configuration not stated),16.5
13,CCc1ncncc1C(=O)N1CCN(Cc2cscn2)CC1,-3.97
14,O=C(c1cc2c(s1)CCOC2)N1CCCCC1Cn1cccn1 (configuration not stated),-7.81
15,CC(=O)N(Cc1noc(C2CC2)n1)C1CCN(Cc2ccccc2)C1 (configuration not stated),-5.69
16,c1sc(C2CCCCC2)nc1CN1CCn2c(nnc2C2CC2)C1,-3.37
17,O=C(CN1CC(n2cccn2)C1)NCCCN1CCCC1=O,22.2
18,CC(C)c1ncc2c(n1)CN(Cc1nc(-c3cccnc3)no1)CC2,13.2
19,Cc1c(C(=O)N2CCCC2c2cnn(C)c2)cnn1-c1ccccc1 (configuration not stated),17.9
20,O=C(NCCNc1ncccn1)C1CCCC1,15.4
21,O=C(c1cc(C2CC2)[nH]n1)N1CCN(Cc2ccccc2)CC1,-4.29
22,O=C(c1cc(C2CC2)[nH]n1)N1CCN(Cc2ccc(Cl)cc2)CC1,12.5
23,Cc1nnc2n1CCN(Cc1csc(COc3ccccc3)n1)C2,-7.26
24,NC(=O)C1CN(C(=O)Nc2ccccc2SC2CCCC2)CCO1 (configuration not stated),-3.34

row,Compound,cytotoxicity at 70.5 h [%]
1,COCCOc1cccc(C(=O)N2CCCC(n3ccnc3)C2)c1 (configuration not stated),-4.62
2,N#CCCNC(=O)CN1CC(n2cccn2)C1,-1.56
3,Cc1ccc(NC2CCN(C(=O)CCc3ccncc3)CC2)nn1,-7.44
4,c1ccc2oc(CCCN3CCCCC3Cn3cncn3)nc2c1 (configuration not stated),-7.94
5,O=C(CN1CC(n2cccn2)C1)NCCC1=CCCCC1,-6.23
6,CC(C)c1ncc2c(n1)CN(Cc1nc(-c3ccco3)no1)CC2,-8.2
7,CN1CCOC(CN(C(=O)COc2ccccc2)c2nccs2)C1 (configuration not stated),-4
8,CC(C)c1ncc2c(n1)CN(Cc1nc(-c3ccccn3)no1)CC2,-6.83
9,Cc1nn(C)c(C)c1C1CCCN1Cc1nc(-c2cccs2)no1 (configuration not stated),-2
10,CC1CN(CC(=O)NCc2cccs2)CCN1c1nccs1 (configuration not stated),-10.4
11,Cc1nn(C)c(Cl)c1C1CCCN1Cc1nc(-c2ccco2)no1 (configuration not stated),-6.17
12,CCc1ncc2c(n1)CN(Cc1nc(-c3cccs3)no1)CC2,-13
13,c1ccc2oc(CN3CCCC3Cn3cncn3)nc2c1 (configuration not stated),-6.61
14,Cc1cnn(CC2CCCN2Cc2nnc(C(C)C)o2)c1 (configuration not stated),23
15,Cn1ncc2c(N3CCN(C(=O)c4ccsc4)CC3)ncnc21,-4.15
16,COc1ccc(Cl)cc1C(=O)NCCNc1cnccn1,-3.57
17,Cn1ccc(C(=O)N2CCN(c3nccs3)CC2)cc1=O,2.52
18,COc1cc(CNCc2ccnc(N3CCOCC3)c2)cc(OC)c1,17.7
19,c1csc(-c2noc(C3CNC3)n2)c1,-8.98
20,Clc1cccnc1OC1CCNCC1,22.1
21,N#Cc1cccnc1OC1CCNCC1,37.8
